Structures can show the parent of a compound that is named as a salt. Where two headings read alike, the source gives them in different places.
Target: human H4 receptor (Homo sapiens (Human), UniProt Q9H3N8)
Test: Binding assay on recombinant human histamine H4 receptor ([3H]histamine competition, SK-N-MC cell membranes)
Conditions: [3H]histamine 10 nM, average of results
Procedure: Binding Assay on Recombinant Human Histamine H4Receptor
Cell pellets from SK-N-MC cells stably or transiently transfected with human H4 receptor (NCBI accession No. AF312230) were used for the binding assays. Cell pellets were homogenized in 50 mM Tris/5 mM EDTA buffer and supernatants from an 800 g spin were collected and recentrifuged at 30,000 g for 30 min. Pellets were rehomogenized in 50 mM Tris/5 mM EDTA buffer. […] Membranes were harvested by rapid filtration using the 96 well Brandel system (Table 1, Brandel) or a cell harvester (Table 1, Cell Harvester) using a Whatman GF/C filter or filter plates treated with 0.5% polyethylenimine (PEI), and washed 4 times with ice-cold 50 mM Tris/5 mM EDTA buffer. Filters were then dried, mixed with scintillant and radioactive counts were determined. […] Where activity is shown as greater than (>) a particular value, the value is the highest concentration tested.

[1] = membranes harvested with 96 well Brandel system, read-out: Brandel Ki
[2] = membranes harvested with cell harvester, read-out: Cell Harvester Ki

Sequence of human H4 receptor (Q9H3N8 whole entry): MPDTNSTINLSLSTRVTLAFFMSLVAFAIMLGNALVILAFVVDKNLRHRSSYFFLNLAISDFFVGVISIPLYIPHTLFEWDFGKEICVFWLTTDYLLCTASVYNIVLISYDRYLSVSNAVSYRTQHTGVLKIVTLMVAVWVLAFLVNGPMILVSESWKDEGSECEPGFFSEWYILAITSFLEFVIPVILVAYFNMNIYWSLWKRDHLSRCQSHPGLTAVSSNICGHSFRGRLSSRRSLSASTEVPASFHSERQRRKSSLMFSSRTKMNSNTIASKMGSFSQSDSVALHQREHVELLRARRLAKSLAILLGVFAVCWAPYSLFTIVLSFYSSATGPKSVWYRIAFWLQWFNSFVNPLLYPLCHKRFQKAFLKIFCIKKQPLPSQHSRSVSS

CN[C@@H]1CCN(c2ccnc(N[C@@H]3C[C@@H]4C[C@H]([C@H]3C)C4(C)C)c2)C1 [Example 10, 4-[(3R)-3-(Methylamino)pyrrolidin-1-yl]-N-[(1R,2R,3R,5S)-2,6,6-trimethylbicyclo[3.1.1]hept-3-yl]pyridin-2-amine]
Ki [1]: 0.5 nM | Ki [2]: 0.5 nM

c1nnc(NC2CCCCC2)cc1N1CCNCC1 [Example 355, N-Cyclohexyl-5-piperazin-1-ylpyridazin-3-amine]
Ki [2]: 2900 nM

CNC1CN(c2cnnc(NCc3ccccc3)c2)C1 [Example 330, N-Benzyl-5-[3-(methylamino)azetidin-1-yl]pyridazin-3-amine]
Ki [2]: 2590 nM

CN[C@@H]1CCN(c2ccnc(NCC3CCCO3)c2)C1 (stereo partly drawn) [Example 6, 4-[(3R)-3-(Methylamino)pyrrolidin-1-yl]-N-[tetrahydrofuran-2-ylmethyl]pyridin-2-amine dihydrochloride]
Ki [2]: 35.1 nM

c1cc(N2CCNCC2)cc(NC2CCCC2)n1 [Example 16, N-Cyclopentyl-4-piperazin-1-ylpyridin-2-amine]
Ki [2]: 48.2 nM

c1cc(N2CCNCC2)nc(NCC2CCCC2)n1 [Example 187, N-(Cyclopentylmethyl)-4-piperazin-1-ylpyrimidin-2-amine]
Ki [2]: 71.5 nM

CN[C@@H]1CCN(c2ccnc(NC3CC4CCC3C4)n2)C1 (stereo partly drawn) [Example 74, Bicyclo[2.2.1]hept-2-yl-[4-(3R)-(3-methylamino-pyrrolidin-1-yl)-pyrimidin-2-yl]-amine]
Ki [2]: 1.2 nM

CCCCNc1nccc(N2CC(N)C2)n1 [Example 84, [4-(3-Amino-azetidin-1-yl)-pyrimidin-2-yl]-butyl-amine]
Ki [2]: 33.3 nM

CN[C@@H]1CCN(c2ccnc(NCC3CCCC3)c2)C1 [Example 226, N-(Cyclopentylmethyl)-4-[(3R)-3-(methylamino)pyrrolidin-1-yl]pyridin-2-amine]
Ki [2]: 3.81 nM

c1cc(N2CCNCC2)cc(NCC2CC2)n1 [Example 35, N-(Cyclopropylmethyl)-4-piperazin-1-ylpyridin-2-amine]
Ki [1]: 25.6 nM | Ki [2]: 74.7 nM

CNC1CN(c2ccnc(NC3CCCC3)n2)C1 [Example 172, N-Cyolopentyl-4-[3-(methylamino)azetidin-1-yl]pyrimidin-2-amine]
Ki [2]: 13.7 nM

N[C@@H]1CCN(c2ccnc(NCc3ccccc3)n2)C1 [Example 179, 4-[(3R)-3-Aminopyrrolidin-1-yl]-N-benzylpyrimidin-2-amine]
Ki [2]: 788 nM

NC1CN(c2cnnc(NCc3ccccc3)c2)C1 [Example 329, 5-(3-Aminoazetidin-1-yl)-N-benzylpyridazin-3-amine]
Ki [2]: > 10000 nM

CN[C@H]1CCN(c2ccnc(NC(C)(C)C)c2)C1 [Example 233, N-tert-Butyl-4-[(3S)-3-(methylamino)pyrrolidin-1-yl]pyridin-2-amine]
Ki [2]: 215 nM

CN1CCN(c2cnnc(NCCc3ccccc3)c2)CC1 [Example 409, 5-(4-Methylpiperazin-1-yl)-N-(2-phenylethyl)pyridazin-3-amine]
Ki [2]: > 10000 nM

CN1CCN(c2ccnc(NCC3CC3)n2)CC1 [Example 45, N-(Cyclopropylmethyl)-4-(4-methylpiperazin-1-yl)pyrimidin-2-amine]
Ki [2]: 7.1 nM

CN[C@@H]1CCN(c2ccnc(NCc3ccc(C)cc3)n2)C1 [Example 170, 4-[(3R)-3-(Methylamino)pyrrolidin-1-yl]-N-(4-methylbenzyl)pyrimidin-2-amine]
Ki [2]: 144 nM

N[C@@H]1CCN(c2cnnc(NCCc3ccccc3)c2)C1 [Example 364, 5-[(3R)-3-Aminopyrrolidin-1-yl]-N-(2-phenylethyl)pyridazin-3-amine]
Ki [2]: 1740 nM

CC(C)CNc1nccc(N2CC(N)C2)n1 [Example 89, 4-(3-Aminoazetidin-1-yl)-N-(2-methylpropyl)pyrimidin-2-amine]
Ki [1]: 26.2 nM | Ki [2]: 69.3 nM

N[C@@H]1CCN(c2ccnc(NCCCC(F)(F)F)n2)C1 [Example 150, 4-[(3R)-3-Aminopyrrolidin-1-yl]-N-(4,4,4-trifluorobutyl)pyrimidin-2-amine]
Ki [2]: 29.7 nM

N[C@H]1CCN(c2ccnc(NC3CCCC3)n2)C1 [Example 160, 4-[(3S)-3-Aminopyrrolidin-1-yl]-N-cyclopentylpyrimidin-2-amine]
Ki [2]: 86.7 nM

CN1CCN(c2cnnc(NCc3ccccc3)c2)CC1 [Example 410, N-Benzyl-5-(4-methylpiperazin-1-yl)pyridazin-3-amine]
Ki [2]: > 10000 nM

CC(C)CNc1nccc(N2C[C@H]3CCN[C@H]3C2)n1 [Example 138, 4-[(3aR,6aR)-Hexahydropyrrolo[3,4-b]pyrrol-5(1H)-yl]-N-(2-methylpropyl)pyrimidin-2-amine]
Ki [2]: 23.8 nM

CN[C@@H]1CCN(c2ccnc(N[C@H]3C[C@H]4C[C@@H]([C@@H]3C)C4(C)C)c2)C1 [Example 9, 4-[(3R)-3-(Methylamino)pyrrolidin-1-yl]-N-[(1S,2S,3S,5R)-2,6,6-trimethylbicyclo[3.1.1]hept-3-yl]pyridin-2-amine]
Ki [1]: 1 nM | Ki [2]: 0.4 nM

CN[C@H]1CCN(c2ccnc(NCc3ccccn3)c2)C1 [Example 229, 4-[(3S)-3-(Methylamino)pyrrolidin-1-yl]-N-(pyridin-2-ylmethyl)pyridin-2-amine]
Ki [2]: > 10000 nM

CC(C)CNc1nccc(N2CCN(C)CC2)n1 [Example 31, Isobutyl-[4-(4-methyl-piperazin-1-yl)-pyrimidin-2-yl]-amine]
Ki [1]: 69 nM | Ki [2]: 76.9 nM

N[C@@H]1CCN(c2cnnc(NCC3CCCC3)c2)C1 [Example 359, 5-[(3R)-3-Aminopyrrolidin-1-yl]-N-(cyclopentylmethyl)pyridazin-3-amine]
Ki [2]: 161 nM

CN[C@H]1CCN(c2cnnc(NCC(C)C)c2)C1 [Example 379, 5-[(3S)-3-(Methylamino)pyrrolidin-1-yl]-N-(2-methylpropyl)pyridazin-3-amine]
Ki [2]: 296 nM

Cc1ccc(CNc2nccc(N3CC[C@@H](N)C3)n2)cc1 [Example 186, 4-[(3R)-3-Aminopyrrolidin-1-yl]-N-(4-methylbenzyl)pyrimidin-2-amine]
Ki [2]: 691 nM

CN[C@@H]1CCN(c2ccnc(NCC3CC4CCC3C4)c2)C1 (stereo partly drawn) [Example 253, N-(Bicyclo[2.21]hept-2-ylmethyl)-4-[(3R)-3-(methylamino)pyrrolidin-1-yl]pyridin-2-amine]
Ki [2]: 4.33 nM

CN1CCN(c2ccnc(NC3CC3)n2)CC1 [Example 56, N-Cyclopropyl-4-(4-methylpiperazin-1-yl)pyrimidin-2-amine]
Ki [2]: 568 nM

CNC1CN(c2cnnc(NCCCC(F)(F)F)c2)C1 [Example 299, 5-[3-(Methylamino)azetidin-1-yl]-N-(4,4,4-trifluorobutyl)pyridazin-3-amine]
Ki [2]: 146 nM

NC1CN(c2ccnc(NCc3ccc(F)cc3)n2)C1 [Example 92, 4-(3-Aminoazetidin-1-yl)-N-(4-fluorobenzyl)pyrimidin-2-amine]
Ki [2]: 615 nM

CNC1CN(c2ccnc(NCC3CCCC3)c2)C1 [Example 275, N-(Cyclopentylmethyl)-4-[3-(methylamino)azetidin-1-yl]pyridin-2-amine]
Ki [2]: 8.55 nM

CC(C)(O)CNc1cc(N2CCNCC2)ccn1 [Example 290, 2-Methyl-1-[(4-piperazin-1-ylpyridin-2-yl)amino]propan-2-ol]
Ki [2]: 1480 nM

CC(C)(O)CNc1nccc(N2CCNCC2)n1 [Example 177, 2-Methyl-1-[(4-piperazin-1-ylpyrimidin-2-yl)amino]propan-2-ol]
Ki [2]: 523 nM

N[C@@H]1CCN(c2cnnc(NCC3CC4CCC3C4)c2)C1 (stereo partly drawn) [Example 312, 5-[(3R)-3-Aminopyrrolidin-1-yl]-N-(bicyclo[2.2.1]hept-2-ylmethyl)pyridazin-3-amine]
Ki [2]: 547 nM

CC(C)(O)CNc1nccc(N2CC[C@@H](N)C2)n1 [Example 27, 1-({4-[(3R)-3-Aminopyrrolidin-1-yl]pyrimidin-2-yl}amino)-2-methylpropan-2-ol]
Ki [2]: 67.7 nM

N[C@@H]1CCN(c2ccnc(NCCc3ccccc3)n2)C1 [Example 117, 4-[(3R)-3-Aminopyrrolidin-1-yl]-N-(2-phenylethyl)pyrimidin-2-amine]
Ki [2]: 247 nM

CN[C@@H]1CCN(c2ccnc(NC3CCCCC3)n2)C1 [Example 192, N-Cyclohexyl-4-[(3R)-3-(methylamino)pyrrolidin-1-yl]pyrimidin-2-amine]
Ki [2]: 2.42 nM

CNC1CN(c2ccnc(NCCOC)c2)C1 [Example 286, N-(2-Methoxyethyl)-4-[3-(methylamino)azetidin-1-yl]pyridin-2-amine]
Ki [2]: 88.3 nM

c1ccc(CCNc2cc(N3CCNCC3)cnn2)cc1 [Example 362, N-(2-Phenylethyl)-5-piperazin-1-ylpyridazin-3-amine]
Ki [2]: 2210 nM

CN[C@@H]1CCN(c2cnnc(NC3CCCC3)c2)C1 [Example 412, N-cyclopentyl-5-[(3R)-3-(methylamino)pyrrolidin-1-yl]pyridazin-3-amine]
Ki [2]: 5.6 nM

CCCNc1cc(N2CCNCC2)ccn1 [Example 17, 4-Piperazin-1-yl-N-propylpyridin-2-amine dihydrochloride]
Ki [2]: 375 nM

CN[C@@H]1CCN(c2ccnc(N[C@@H]3CCOC3)c2)C1 [Example 5, 4-[(3R)-3-(Methylamino)pyrrolidin-1-yl]-N-[(3R)-tetrahydrofuran-3-yl]pyridin-2-amine dihydrochloride]
Ki [2]: 8.9 nM

CN[C@@H]1CCN(c2ccnc(NCC(C)(C)O)n2)C1 [Example 114, 2-Methyl-1-({4-[(3R)-3-(methylamino)pyrrolidin-1-yl]pyrimidin-2-yl}amino)propan-2-ol]
Ki [2]: 45.4 nM

CNC1CN(c2cnnc(NCC(C)C)c2)C1 [Example 319, 5-[3-(Methylamino)azetidin-1-yl]-N-(2-methylpropyl)pyridazin-3-amine]
Ki [2]: 478 nM

Source: patent US9732087B2, “Diamino-pyridine, pyrimidine, and pyridazine modulators of the histamine H4 receptor” (JANSSEN PHARMACEUTICA NV, priority 2008, dated 2017)
